Measured values reported in PMC7217150, “Synthesis, Modification, and Biological Evaluation of a Library of Novel Water‐Soluble Thiopyridone‐Based Organometallic Complexes and Their Unexpected (Biological) Behavior” (Chemistry (Weinheim an Der Bergstrasse, Germany), 2020).
Like-named read-outs stand apart in the source and are kept apart here. Values belong to the compound of their own block, whether it stands above or below them.

Tests used:
[1] = system: A549; experiment: MTT cytotoxicity assay, monolayer culture; assay type: cell-based, human; conditions: exposure time 96 h, means ± SDs
Excerpt: (§1) A549 (non‐small cell lung carcinoma), SW480 and HCT‐116 (both colon carcinoma) were kindly provided by Brigitte Marian, Institute of Cancer Research, Department of Medicine I, Medical University of Vienna, Austria. The cell line CH1/PA‐1 (ovarian teratocarcinoma) was kindly provided by Lloyd R. Kelland (CRC Centre for Cancer Therapeutics, Institute of Cancer Research, Sutton, UK). All cell culture media (including supplements) and reagents were obtained from Sigma–Aldrich, and all plasticware from StarLab, unless indicated otherwise.

[2] = system: CH1/PA‐1; experiment: MTT cytotoxicity assay, monolayer culture; assay type: cell-based, human; conditions: CH1/PA‐1, MTT assay, exposure time 96 h, means ± SDs
Excerpt: as §1

[3] = system: SW480; experiment: MTT cytotoxicity assay, monolayer culture; assay type: cell-based, human
Excerpt: as §1

[4] = system: A549; conditions: A549 multicellular spheroids, 96 h drug exposure
Procedure: (§2) A549, CH1/PA‐1 and SW480 cells were grown in MEM supplemented with 10 % fetal calf serum (FCS; from Biowest), 1 mM sodium pyruvate, 4 mM L‐glutamine and 1 % v/v nonessential amino acids (from 100×solution) and L‐glutamine. HCT‐116 cells were maintained in McCoy's 5a medium supplemented with 10 % FCS and L‐glutamine. Adherent monolayer cultures were grown in 75 cm^2 flasks. For spheroid culture, A549, CH1/PA‐1 and HCT‐116 cells were harvested from culture flasks by trypsinization, resuspended in their respective supplemented medium and seeded in ultra‐low attachment round‐bottom 96‐well plates (Corning Costar) at a density of 500 viable cells per well. Plates were incubated for 96 h to allow spheroid formation prior to use for the tests. All cultures were incubated in a humidified incubator at 37 °C with 5 % CO2.
(§3) Cytotoxicity in multicellular spheroids was determined by the fluorimetric resazurin assay. […] After incubation for 96 h, 20 μL of a 440 μM resazurin sodium salt solution in PBS were added to each well, and the plates were incubated for further 16 h. Fluorescence was measured with a Synergy HT reader (BioTek) with an excitation wavelength of 530 nm and emission wavelength of 590 nm. For both assays, at least three independent experiments (or two in case of poor activity) were performed, each with triplicates per concentration level, and the 50 % inhibitory concentrations (IC50) relative to untreated controls were interpolated from concentration‐effect curves.

[5] = system: CH1/PA‐1; conditions: CH1/PA‐1 multicellular spheroids, 96 h drug exposure
Procedure: as §2, §3

[6] = system: HCT‐116; conditions: HCT‐116 multicellular spheroids, 96 h drug exposure
Procedure: as §2, §3

[7] = system: CH1/PA‐1; experiment: Cell cycle distribution, flow cytometry with propidium iodide; assay type: cell-based, human; conditions: for Cell cycle distribution G1, % / Cell cycle distribution G2/M, % / Cell cycle distribution S, %: 24 h, mean ± SD; for Relative change in cell cycle distribution G1, % / Relative change in cell cycle distribution G2/M, % / Relative change in cell cycle distribution S, %: difference to untreated control
Procedure: (§4) The influence of two ligands, as well as seven complexes on cell cycle distribution was tested in two of the cancer cell lines (SW480, CH1/PA‐1) by means of flow cytometry. The cell cycle distribution (G1, S, G2/M phase in %; Table S37) was investigated upon DNA staining with propidium iodide.
(§5) CH1/PA‐1 and SW480 cells were harvested by trypsinization, 8×10^4 and 1.2×10^5 cells per well were seeded into 12‐well plates, respectively. The cells were allowed to attach and resume proliferation for 24 h after the seeding. […] After continuous exposure for 24 h at 37 °C and under 5 % CO2, the cells were harvested by trypsinization and centrifuged at 300 g for 3 min. The cells were washed with PBS (1 mL) and resuspended in propidium iodine (PI) containing HSF buffer (600 μL; 0.1 % Triton X‐100, 0.1 % sodium citrate, 50 μg mL^−1 PI in PBS). After incubation overnight at 4 °C in the dark, 5×10^3 cells were measured by flow cytometry with a Millipore Guava easyCyte 8HT instrument (Luminex, USA). Data were evaluated by means of FlowJo software (Tree Star) using Watson Pragmatic algorithms.60 The fitting of the curve was chosen to keep the root mean square error between 1.0 and 2.0, alongside with good fitting visual model.

[8] = system: SW480; experiment: as above; assay type: cell-based, human; conditions: for Cell cycle distribution G1, % / Cell cycle distribution G2/M, % / Cell cycle distribution S, %: 24 h, mean ± SD; for Relative change in cell cycle distribution G1, % / Relative change in cell cycle distribution G2/M, % / Relative change in cell cycle distribution S, %: difference to untreated control
Procedure: as §4, §5

[9] = system: SW480 cells; conditions: ICP‐MS, 2 h exposure
[10] = system: human cancer cell lines CH1/PA‐1, SW480, A549; conditions: tested cancer cell lines
Procedure: Cytotoxicity of the compounds in monolayer cultures was determined by the colorimetric MTT assay (MTT=3‐(4,5‐dimethyl‐2‐thiazolyl)‐2,5‐diphenyl‐2H‐tetrazolium bromide). 1×10^3 CH1/PA‐1, 2×10^3 SW480 and 3×10^3 A549 cells were seeded in 100 μL supplemented MEM per well into 96‐well flat‐bottom microculture plates. […] After 96 h, the drug‐containing medium was replaced with 100 μL of RPMI 1640/MTT mixture [6 parts of RPMI 1640 medium (supplemented with 10 % heat‐inactivated fetal bovine serum and 4 mM L‐glutamine), 1 part of MTT solution in phosphate‐buffered saline (5 mg mL^−1)]. After incubation for 4 h, the mixture was replaced with 150 μL DMSO per well to dissolve the formazan product formed by viable cells. Optical densities at 550 nm (and at a reference wavelength of 690 nm) were measured with a microplate reader (ELx808, Bio‐Tek).

[11] = pH 7.2
Procedure: Stock solutions containing the desired complex in DMSO (5 mM) were diluted with phosphate buffer (pH 7.2) to a final concentration of […] compound in 1 % DMSO/20 mM buffer and directly analyzed by four different isocratic UHPLC runs (Δ=5 %). The lipophilicity parameters logkw and lipophilicity indices φ0 were calculated according to literature.7, 37

[12] = SW480, MTT assay, exposure time 96 h, means ± SDs

IC50 [4]: 79 ± 5 µM
IC50 [5]: 59 ± 10 µM
IC50 [6]: 62 ± 1 µM
IC50 values, in words [10]: high nanomolar range
Compound: Chlorido[1‐benzyl‐2‐methyl‐3‐oxo‐κO‐pyridine‐4(1H)‐thionato‐κS](η^5‐1,2,3,4,5‐pentamethylcyclopentadienyl)rhodium(III) [Compound 5 c]
IC50 [1]: 0.72 ± 0.11 µM
IC50 [2]: 0.37 ± 0.04 µM
IC50 [3, 12]: 0.28 ± 0.02 µM
IC50 ([3]; SW480, as listed in Table 3): 0.28 ± 0.02 µM
Cell cycle distribution G1, % ([7]; CH1/PA-1, 1.25 µM): 40 ± 14%
Cell cycle distribution G2/M, % ([7]; CH1/PA-1, 1.25 µM): 22 ± 7%
Cell cycle distribution S, % ([7]; CH1/PA-1, 1.25 µM): 38 ± 7%
Relative change in cell cycle distribution G1, % ([7]; CH1/PA-1, 1.25 µM): 0%
Relative change in cell cycle distribution G2/M, % ([7]; CH1/PA-1, 1.25 µM): -2%
Relative change in cell cycle distribution S, % ([7]; CH1/PA-1, 1.25 µM): 2%
Cell cycle distribution G1, % ([7]; CH1/PA-1, 2.5 µM): 34 ± 5%
Cell cycle distribution G2/M, % ([7]; CH1/PA-1, 2.5 µM): 24 ± 4%
Cell cycle distribution S, % ([7]; CH1/PA-1, 2.5 µM): 42 ± 3%
Relative change in cell cycle distribution G1, % ([7]; CH1/PA-1, 2.5 µM): -6%
Relative change in cell cycle distribution G2/M, % ([7]; CH1/PA-1, 2.5 µM): 0%
Relative change in cell cycle distribution S, % ([7]; CH1/PA-1, 2.5 µM): 6%
Cell cycle distribution G1, % ([7]; CH1/PA-1, 5 µM): 30 ± 10%
Cell cycle distribution S, % ([7]; CH1/PA-1, 5 µM): 42 ± 6%
Relative change in cell cycle distribution G1, % ([7]; CH1/PA-1, 5 µM): -10%
Relative change in cell cycle distribution G2/M, % ([7]; CH1/PA-1, 5 µM): 4%
Relative change in cell cycle distribution S, % ([7]; CH1/PA-1, 5 µM): 6%
decrease in G1 phase ([7]; CH1/PA‐1 cells, 2.5 μM): 6%
Cell cycle distribution G1, % ([8]; SW480, 2.5 µM): 44 ± 10%
Cell cycle distribution G2/M, % ([8]; SW480, 2.5 µM): 20 ± 6%
Cell cycle distribution S, % ([8]; SW480, 2.5 µM): 36 ± 1%
Relative change in cell cycle distribution G1, % ([8]; SW480, 2.5 µM): -4%
Relative change in cell cycle distribution G2/M, % ([8]; SW480, 2.5 µM): 1%
Relative change in cell cycle distribution S, % ([8]; SW480, 2.5 µM): 3%
Cell cycle distribution G1, % ([8]; SW480, 5 µM): 44 ± 5%
Cell cycle distribution G2/M, % ([8]; SW480, 5 µM): 17 ± 4%
Cell cycle distribution S, % ([8]; SW480, 5 µM): 39 ± 1%
Relative change in cell cycle distribution G1, % ([8]; SW480, 5 µM): -4%
Relative change in cell cycle distribution G2/M, % ([8]; SW480, 5 µM): -2%
Relative change in cell cycle distribution S, % ([8]; SW480, 5 µM): 6%
Cell cycle distribution G1, % ([8]; SW480, 10 µM): 50 ± 2%
Cell cycle distribution G2/M, % ([8]; SW480, 10 µM): 16 ± 5%
Cell cycle distribution S, % ([8]; SW480, 10 µM): 34 ± 5%
Relative change in cell cycle distribution G1, % ([8]; SW480, 10 µM): 2%
Relative change in cell cycle distribution G2/M, % ([8]; SW480, 10 µM): -3%
Relative change in cell cycle distribution S, % ([8]; SW480, 10 µM): 1%
decrease in G1 phase ([8]; SW480 cells, at applicable concentrations): < 9%
Cellular accumulation ([9]; 20 μM): 855±66 fg/cell

Compound: Cc1c([O-])c(=S)ccn1C.Cc1ccc(C(C)C)cc1.[Cl-].[Ru+2] [Compound 3 a, Chlorido[1,2‐dimethyl‐3‐oxo‐κO‐pyridine‐4(1H)‐thionato‐κS](η^6‐p‐cymene)‐ruthenium(II)]
IC50 [1]: > 200 µM
IC50 [2]: > 200 µM
IC50 [3, 12]: 55 ± 18 µM
IC50 ([3]; SW480, as listed in Table 3): 54.6 ± 18.4 µM
φ0 (chromatographic lipophilicity index) [11]: 5.51
IC50 [4]: > 400 µM
IC50 [5]: 267 ± 14 µM
IC50 [6]: > 400 µM
Cellular accumulation ([9]; 50 μM): 21±5 fg/cell
